# pIC50: −log10 of the molar value.
# Assays:
# [1] = biological target: T1, Mitogen-activated protein kinase kinase kinase 13 (Homo sapiens) (UniProt O43283); experiment: Selectivity interaction (KinomeScan (DiscoverX)) EUB0000092b MAP3K13; details: at 10 µM
# T1 sequence (whole entry): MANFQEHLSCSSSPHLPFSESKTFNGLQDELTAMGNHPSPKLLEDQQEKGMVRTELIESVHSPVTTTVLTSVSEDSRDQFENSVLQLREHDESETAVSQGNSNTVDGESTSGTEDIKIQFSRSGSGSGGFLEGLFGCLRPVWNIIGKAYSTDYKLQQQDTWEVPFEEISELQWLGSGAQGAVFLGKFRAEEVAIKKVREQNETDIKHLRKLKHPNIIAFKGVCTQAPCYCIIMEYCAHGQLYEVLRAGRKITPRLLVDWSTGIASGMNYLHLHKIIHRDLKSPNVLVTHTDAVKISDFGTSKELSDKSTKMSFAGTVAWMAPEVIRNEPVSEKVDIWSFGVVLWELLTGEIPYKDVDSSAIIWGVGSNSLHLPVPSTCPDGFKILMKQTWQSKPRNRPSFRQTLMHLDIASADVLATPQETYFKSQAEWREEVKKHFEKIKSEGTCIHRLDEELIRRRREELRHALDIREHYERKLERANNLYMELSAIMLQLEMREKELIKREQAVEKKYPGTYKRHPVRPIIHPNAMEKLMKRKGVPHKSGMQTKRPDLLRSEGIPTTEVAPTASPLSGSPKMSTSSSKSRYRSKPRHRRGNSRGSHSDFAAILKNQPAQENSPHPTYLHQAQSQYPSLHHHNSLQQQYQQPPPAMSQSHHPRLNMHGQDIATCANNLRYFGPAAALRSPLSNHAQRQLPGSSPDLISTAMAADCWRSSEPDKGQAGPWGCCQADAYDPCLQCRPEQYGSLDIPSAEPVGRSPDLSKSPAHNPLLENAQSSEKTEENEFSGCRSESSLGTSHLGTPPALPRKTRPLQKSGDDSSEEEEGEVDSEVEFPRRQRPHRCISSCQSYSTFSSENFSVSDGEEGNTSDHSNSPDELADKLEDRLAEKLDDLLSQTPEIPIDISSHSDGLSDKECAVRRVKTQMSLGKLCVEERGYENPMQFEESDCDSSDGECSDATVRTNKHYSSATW
# [2] = biological target: Tyrosine-protein kinase JAK2 (Homo sapiens, UniProt O60674); experiment: Selectivity interaction (ProQinase) EUB0000171b JAK2
# Tyrosine-protein kinase JAK2, sequence (O60674 whole entry): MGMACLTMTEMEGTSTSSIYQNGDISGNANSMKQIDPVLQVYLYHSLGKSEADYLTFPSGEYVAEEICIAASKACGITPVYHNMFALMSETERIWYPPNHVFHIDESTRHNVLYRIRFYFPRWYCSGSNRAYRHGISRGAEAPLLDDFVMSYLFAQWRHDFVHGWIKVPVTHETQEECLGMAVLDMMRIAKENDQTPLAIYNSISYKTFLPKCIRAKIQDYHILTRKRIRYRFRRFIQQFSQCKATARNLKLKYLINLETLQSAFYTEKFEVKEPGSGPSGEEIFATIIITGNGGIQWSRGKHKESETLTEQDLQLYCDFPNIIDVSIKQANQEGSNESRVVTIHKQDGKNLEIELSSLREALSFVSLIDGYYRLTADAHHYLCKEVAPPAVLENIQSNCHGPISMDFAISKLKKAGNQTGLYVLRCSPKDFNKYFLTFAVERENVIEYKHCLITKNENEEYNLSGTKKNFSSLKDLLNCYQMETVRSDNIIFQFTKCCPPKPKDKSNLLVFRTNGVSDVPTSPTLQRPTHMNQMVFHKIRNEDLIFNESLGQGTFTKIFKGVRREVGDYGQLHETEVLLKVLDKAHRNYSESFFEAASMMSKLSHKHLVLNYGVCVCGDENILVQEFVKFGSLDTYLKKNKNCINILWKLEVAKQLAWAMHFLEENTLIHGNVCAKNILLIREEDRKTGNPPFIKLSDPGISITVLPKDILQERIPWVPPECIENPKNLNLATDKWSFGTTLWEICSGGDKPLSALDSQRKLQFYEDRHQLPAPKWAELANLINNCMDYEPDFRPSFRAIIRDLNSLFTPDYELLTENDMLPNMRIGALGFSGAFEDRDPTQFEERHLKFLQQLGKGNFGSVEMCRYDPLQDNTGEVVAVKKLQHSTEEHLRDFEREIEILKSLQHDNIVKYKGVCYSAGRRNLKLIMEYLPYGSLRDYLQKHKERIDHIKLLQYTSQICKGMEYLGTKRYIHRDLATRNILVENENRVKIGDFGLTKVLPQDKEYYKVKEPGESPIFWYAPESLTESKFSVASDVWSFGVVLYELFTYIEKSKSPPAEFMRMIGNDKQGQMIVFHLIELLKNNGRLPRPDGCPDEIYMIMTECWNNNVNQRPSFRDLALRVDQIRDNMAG
# [3] = biological target: Cyclin-dependent kinase 2/cyclin A (Homo sapiens, UniProt P24941); experiment: Selectivity interaction (Enyzmatic assay) EUB0000601a CDK2; format: protein-complex assay
# [4] = biological target: Phosphatidylinositol 4-phosphate 3-kinase C2 domain-containing subunit beta (Homo sapiens) (UniProt O00750); experiment: Selectivity interaction (Adapta Assay) EUB0001632a PIK3C2B; details: at 10 µM
# Phosphatidylinositol 4-phosphate 3-kinase C2 domain-containing subunit beta (Homo sapiens), sequence (O00750 whole entry, the tested form may be a part): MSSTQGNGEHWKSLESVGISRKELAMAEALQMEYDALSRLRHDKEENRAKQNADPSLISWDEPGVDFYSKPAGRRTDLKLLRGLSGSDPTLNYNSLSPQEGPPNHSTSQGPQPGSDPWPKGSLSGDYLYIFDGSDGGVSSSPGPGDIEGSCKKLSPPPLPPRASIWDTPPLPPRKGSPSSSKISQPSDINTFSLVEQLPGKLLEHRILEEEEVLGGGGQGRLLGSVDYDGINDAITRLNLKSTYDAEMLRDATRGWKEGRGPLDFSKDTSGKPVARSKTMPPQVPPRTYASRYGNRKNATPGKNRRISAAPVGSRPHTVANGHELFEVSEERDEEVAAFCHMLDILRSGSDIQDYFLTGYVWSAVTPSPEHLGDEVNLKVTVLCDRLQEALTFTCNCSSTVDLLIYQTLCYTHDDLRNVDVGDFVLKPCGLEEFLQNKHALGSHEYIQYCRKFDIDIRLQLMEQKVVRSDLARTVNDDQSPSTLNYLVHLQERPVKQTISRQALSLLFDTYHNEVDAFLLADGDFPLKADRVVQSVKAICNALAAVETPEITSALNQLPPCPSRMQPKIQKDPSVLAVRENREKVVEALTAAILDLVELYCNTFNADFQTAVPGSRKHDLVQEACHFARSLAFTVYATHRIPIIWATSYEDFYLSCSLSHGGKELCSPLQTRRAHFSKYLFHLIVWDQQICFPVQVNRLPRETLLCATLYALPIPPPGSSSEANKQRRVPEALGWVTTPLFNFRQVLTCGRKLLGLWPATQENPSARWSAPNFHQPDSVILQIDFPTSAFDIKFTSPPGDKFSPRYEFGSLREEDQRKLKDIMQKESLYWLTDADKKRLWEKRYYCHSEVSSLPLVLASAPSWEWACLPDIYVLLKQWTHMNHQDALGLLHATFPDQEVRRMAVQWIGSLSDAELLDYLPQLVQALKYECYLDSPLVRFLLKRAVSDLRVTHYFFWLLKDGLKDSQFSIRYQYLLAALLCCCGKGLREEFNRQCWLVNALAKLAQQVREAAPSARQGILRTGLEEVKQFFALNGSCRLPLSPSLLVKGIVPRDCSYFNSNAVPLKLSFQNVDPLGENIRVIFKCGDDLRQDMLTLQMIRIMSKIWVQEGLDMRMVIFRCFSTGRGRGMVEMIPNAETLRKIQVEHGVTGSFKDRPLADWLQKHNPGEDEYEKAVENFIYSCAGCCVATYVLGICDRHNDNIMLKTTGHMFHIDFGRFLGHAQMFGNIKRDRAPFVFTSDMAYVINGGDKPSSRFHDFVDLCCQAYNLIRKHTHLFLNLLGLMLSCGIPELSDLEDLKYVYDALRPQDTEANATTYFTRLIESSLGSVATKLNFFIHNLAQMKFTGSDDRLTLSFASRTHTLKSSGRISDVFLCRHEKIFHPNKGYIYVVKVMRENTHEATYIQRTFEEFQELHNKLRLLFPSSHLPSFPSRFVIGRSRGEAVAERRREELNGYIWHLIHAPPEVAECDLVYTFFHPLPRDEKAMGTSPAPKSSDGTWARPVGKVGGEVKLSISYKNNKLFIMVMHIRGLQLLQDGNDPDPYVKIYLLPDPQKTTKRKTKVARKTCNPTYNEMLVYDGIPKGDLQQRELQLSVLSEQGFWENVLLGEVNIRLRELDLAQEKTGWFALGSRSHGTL
# [5] = biological target: Protein polybromo-1 (Homo sapiens) (UniProt Q86U86); experiment: Selectivity interaction (Bromodomain panel (DSF asssay)) EUB0000270b PBRM1
# Protein polybromo-1 (Homo sapiens), sequence (Q86U86 whole entry): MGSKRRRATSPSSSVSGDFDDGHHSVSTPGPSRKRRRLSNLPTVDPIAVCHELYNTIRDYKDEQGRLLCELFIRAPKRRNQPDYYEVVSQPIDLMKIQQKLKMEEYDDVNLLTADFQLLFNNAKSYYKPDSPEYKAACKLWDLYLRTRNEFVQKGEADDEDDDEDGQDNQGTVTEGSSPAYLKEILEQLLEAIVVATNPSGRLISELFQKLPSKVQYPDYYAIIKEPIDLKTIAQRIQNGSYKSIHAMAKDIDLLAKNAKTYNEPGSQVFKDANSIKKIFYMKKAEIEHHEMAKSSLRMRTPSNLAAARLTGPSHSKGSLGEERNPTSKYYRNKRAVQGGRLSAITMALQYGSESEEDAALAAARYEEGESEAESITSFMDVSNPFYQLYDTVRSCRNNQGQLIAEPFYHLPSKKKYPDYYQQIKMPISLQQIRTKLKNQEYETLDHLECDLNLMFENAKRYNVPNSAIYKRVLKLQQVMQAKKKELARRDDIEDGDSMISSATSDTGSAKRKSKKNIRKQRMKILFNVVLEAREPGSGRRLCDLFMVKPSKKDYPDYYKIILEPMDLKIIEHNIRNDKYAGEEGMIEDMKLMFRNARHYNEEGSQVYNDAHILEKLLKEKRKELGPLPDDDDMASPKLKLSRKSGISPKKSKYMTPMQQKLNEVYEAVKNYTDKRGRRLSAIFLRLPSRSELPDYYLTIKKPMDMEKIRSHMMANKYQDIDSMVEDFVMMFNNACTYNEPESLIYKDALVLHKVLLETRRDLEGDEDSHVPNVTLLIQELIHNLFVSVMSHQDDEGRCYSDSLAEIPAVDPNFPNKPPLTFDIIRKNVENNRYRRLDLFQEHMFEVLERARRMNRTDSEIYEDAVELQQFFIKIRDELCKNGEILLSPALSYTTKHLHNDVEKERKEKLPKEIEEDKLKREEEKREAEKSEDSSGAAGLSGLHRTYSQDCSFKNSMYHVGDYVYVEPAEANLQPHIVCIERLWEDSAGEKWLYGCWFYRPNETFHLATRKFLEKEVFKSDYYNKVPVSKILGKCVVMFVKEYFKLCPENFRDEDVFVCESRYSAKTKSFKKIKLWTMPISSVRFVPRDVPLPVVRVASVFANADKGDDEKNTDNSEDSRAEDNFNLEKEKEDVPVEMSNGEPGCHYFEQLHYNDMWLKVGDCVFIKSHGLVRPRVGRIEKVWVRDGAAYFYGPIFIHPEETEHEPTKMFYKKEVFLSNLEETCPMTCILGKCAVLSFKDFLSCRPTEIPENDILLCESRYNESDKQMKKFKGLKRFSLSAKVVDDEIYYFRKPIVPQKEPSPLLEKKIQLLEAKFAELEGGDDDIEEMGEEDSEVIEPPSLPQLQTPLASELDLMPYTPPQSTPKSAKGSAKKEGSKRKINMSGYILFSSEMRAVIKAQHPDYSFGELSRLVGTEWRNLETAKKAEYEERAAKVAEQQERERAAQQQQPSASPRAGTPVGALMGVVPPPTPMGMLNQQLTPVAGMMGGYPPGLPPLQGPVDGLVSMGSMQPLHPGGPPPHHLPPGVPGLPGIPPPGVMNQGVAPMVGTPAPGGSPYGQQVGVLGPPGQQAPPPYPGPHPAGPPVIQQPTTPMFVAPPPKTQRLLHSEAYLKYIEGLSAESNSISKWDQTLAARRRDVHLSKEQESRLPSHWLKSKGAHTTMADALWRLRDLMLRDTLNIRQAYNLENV
# [6] = biological target: Dual specificity mitogen-activated protein kinase kinase 1 (Homo sapiens, UniProt Q02750); experiment: Selectivity interaction (Kinase panel (Invitrogen)) EUB0000639a MAP2K1; details: at 200 nM
# Dual specificity mitogen-activated protein kinase kinase 1, sequence (Q02750 whole entry): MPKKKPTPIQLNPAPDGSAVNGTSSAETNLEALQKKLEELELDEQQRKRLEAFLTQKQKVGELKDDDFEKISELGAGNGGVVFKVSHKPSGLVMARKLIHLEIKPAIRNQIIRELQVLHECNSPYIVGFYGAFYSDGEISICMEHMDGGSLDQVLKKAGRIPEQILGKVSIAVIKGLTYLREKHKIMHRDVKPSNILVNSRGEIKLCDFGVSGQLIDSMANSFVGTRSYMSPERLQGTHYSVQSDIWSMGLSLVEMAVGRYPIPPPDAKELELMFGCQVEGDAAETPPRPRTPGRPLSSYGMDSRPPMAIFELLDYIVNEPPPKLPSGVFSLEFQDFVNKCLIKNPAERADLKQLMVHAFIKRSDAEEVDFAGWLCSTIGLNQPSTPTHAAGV
# [7] = biological target: T2, Membrane-associated tyrosine- and threonine-specific cdc2-inhibitory kinase (Homo sapiens) (UniProt Q99640); experiment: Selectivity interaction (KinomeScan (DiscoverX)) EUB0000595a PKMYT1; details: at 10 µM
# T2 sequence (whole entry): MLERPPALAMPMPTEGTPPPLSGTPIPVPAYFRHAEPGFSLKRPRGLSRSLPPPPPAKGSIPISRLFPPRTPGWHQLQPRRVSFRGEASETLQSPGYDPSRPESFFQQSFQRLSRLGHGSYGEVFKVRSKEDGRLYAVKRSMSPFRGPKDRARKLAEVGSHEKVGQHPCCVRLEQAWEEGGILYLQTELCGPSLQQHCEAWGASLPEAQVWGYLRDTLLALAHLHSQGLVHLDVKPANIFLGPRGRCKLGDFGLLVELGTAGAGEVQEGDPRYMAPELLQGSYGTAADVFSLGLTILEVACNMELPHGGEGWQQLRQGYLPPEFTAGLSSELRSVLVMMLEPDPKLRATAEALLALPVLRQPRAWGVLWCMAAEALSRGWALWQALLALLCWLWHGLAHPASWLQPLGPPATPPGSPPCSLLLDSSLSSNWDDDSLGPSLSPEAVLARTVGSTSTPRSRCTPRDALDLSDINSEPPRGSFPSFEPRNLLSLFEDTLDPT
# [8] = biological target: T3, TGF-beta receptor type-1 (Homo sapiens) (UniProt P36897); experiment: Selectivity interaction (KinomeScan (DiscoverX)) EUB0000045b TGFBR1
# T3 sequence (whole entry): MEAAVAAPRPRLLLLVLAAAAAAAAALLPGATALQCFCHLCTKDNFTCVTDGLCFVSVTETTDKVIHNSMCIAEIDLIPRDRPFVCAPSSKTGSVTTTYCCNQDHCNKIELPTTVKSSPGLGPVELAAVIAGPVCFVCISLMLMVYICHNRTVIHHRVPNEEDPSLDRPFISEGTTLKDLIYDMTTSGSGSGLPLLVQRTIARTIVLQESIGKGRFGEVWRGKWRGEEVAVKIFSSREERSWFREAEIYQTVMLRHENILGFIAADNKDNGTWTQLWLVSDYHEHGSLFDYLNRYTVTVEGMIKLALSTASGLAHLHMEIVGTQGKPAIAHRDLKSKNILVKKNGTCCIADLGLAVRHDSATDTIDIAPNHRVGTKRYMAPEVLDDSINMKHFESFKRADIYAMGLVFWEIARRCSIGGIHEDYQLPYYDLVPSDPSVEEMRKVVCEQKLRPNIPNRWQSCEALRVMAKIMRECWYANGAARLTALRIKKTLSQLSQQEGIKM
# [9] = biological target: Serine/threonine-protein kinase RIO2 (Homo sapiens) (UniProt Q9BVS4); experiment: Selectivity interaction (KinomeScan (DiscoverX)) EUB0001619a RIOK2; details: at 1 µM
structure (smiles),measurement,setting,value
CCC(=O)N1CCN(c2ccc(-n3c(=O)ccc4cnc5ccc(-c6cnc7ccccc7c6)cc5c43)cc2C(F)(F)F)CC1,% of control,[1],100%
C=CC(=O)Nc1cccc(C(=O)Nc2ccc(Nc3cc(-c4[nH]c(SC)nc4C)ccn3)cc2)c1,% of control,[2]; at 1 µM,80%
same,% of control,[2]; at 5 µM,72%
CCc1cc(Nc2nccc(-c3c(-c4ccc(OC)c(C(=O)Nc5c(F)cccc5F)c4)nc4ccccn34)n2)c(OC)cc1N1CCC(N2CCN(S(C)(=O)=O)CC2)CC1,pIC50,[3],< 5.00
Cn1cc(-n2cnc3c(NCc4nc5cc(Cl)c(Cl)cc5[nH]4)nc(N4CCOCC4)nc32)cn1,% of inhibition,[4],64.1%
Cc1cc(CN)cc(C)c1-c1ncn(C)c1-c1cncn1C,dTM,[5],-1.53 K
CC[C@@H]1[C@H](F)C(=O)N[C@@H]1COc1nccc2cc(C(N)=O)c(OC)cc12 [ZIMLOVISERTIB],% of inhibition,[6],20.4%
COCC(=O)NC/C=C/c1ccc2ncnc(Nc3ccc(Oc4ccc(C)nc4)c(C)c3)c2c1 [CP-724714],% of control,[7],100%
C=CC(=O)Nc1cc(-n2c(=O)ccc3cnc4ccc(-c5ccc(NS(C)(=O)=O)cc5)cc4c32)ccc1C,% of control,[8]; at 1 µM,97%
same,% of control,[8]; at 10 µM,100%
N#Cc1cccc(-c2c[nH]c3ncnc(N4CCOCC4)c23)c1,% of control,[9],75%

# From ChEMBL document CHEMBL5465560, “Selectivity Literature for EUbOPEN Chemogenomic Library” (2024)
